Data taken from patent publication US5213962A, “Purification, detection and methods of use of protease Nexin-2” (The Regents of the University of California, priority 1992, dated 1993).

Tested on: platelets
Assay: Secretion of PN-2/βAPP from platelets after activation by agonists
Type: cell-based
Settings: freshly washed platelets, 10 minutes
Experimental: Secretion on PN-2/βAPP from platelets after activation by the agonists collagen or thrombin was studied. Briefly, fresh platelets washed by albumin density gradient centrifugation and gel filtration were incubated for 30 minutes at 37° C. in the absence or presence of the combined metabolic inhibitors antimycin A (15 μg/ml), 2-deoxy-D-glucose (30 mM), and D-gluconic acid δ-lactone (10 mM). The platelets were then placed into a cuvette 37° C. water bath with stirring at 1,200 rpm, and collagen (20 μg/ml or α-thrombin U/ml) was added. After 10 minutes, the samples were centrifuged at 12,000×g for 4 minutes and supernatants were collected. Aliquots were removed and quantitated for PN-2/βAPP by incubation with ^125 I-EGF BP and analysis of complex formation by SDS-PAGE and autoradiography as in Example 15. Autoradiograms were aligned with dried gels; ^125 I-EGF BP:PN-2/βAPP complexes were located, excised and quantitated in a […]. Aliquots were also quantitated for platelet markers as follows: total adenine nucleotide (ADP/ATP) secretion was measured by the method of Homsen et al., Anal. Biochem., 46:489 (1972); low affinity platelet factor 4 (LA-PF4) secretion was quantitated by the method of Rucinski et al., Blood, 53:47 (1979); and cytosolic lactate dehydrogenase (LDH) loss was assessed by the procedure of Wroblewski and Ladue, Proc. Soc. Exper. […]

Substance | secretion of total PN-2/βAPP present in the platelets
collagen | approximately one-half
thrombin | approximately one-half
